Source: the NIST ThermoML archive (doi:10.1016/j.jct.2010.12.027)
Numbers after ± are expanded uncertainties.

Experiments:
[1] = 298.15 K, 101 kPa, Liquid; for viscosity: Capillary tube (Ostwald / Ubbelohde) method; for mass density: Vibrating tube method
[2] = xn = mol fraction of the nth substance listed; settings: 298.15 K, 101 kPa, Liquid; for viscosity: Capillary tube (Ostwald / Ubbelohde) method; for mass density: Vibrating tube method

CCCCN [1-butanamine]
[1]
Settings | mass density [kg/m3] | viscosity [mPa·s]
– | 732.88 ± 0.26 | 0.476 ± 0.01

CCCCN [1-butanamine] + CCCCCCn1cc[n+](C)c1.F[B-](F)(F)F
[2]
Settings | mass density [kg/m3] | viscosity [mPa·s]
x2 = 0 | 732.88 ± 0.26 | 0.476 ± 0.01
x2 = 0.0492 | 778.02 ± 0.81 | 0.889 ± 0.021
x2 = 0.0994 | 809.01 ± 0.79 | 1.433 ± 0.034
x2 = 0.1997 | 888.25 ± 0.74 | 3.137 ± 0.072
x2 = 0.3002 | 943.91 ± 0.65 | 6.183 ± 0.14
x2 = 0.3525 | 968.66 ± 0.6 | 8.532 ± 0.19
x2 = 0.4013 | 989.49 ± 0.6 | 11.16 ± 0.26
x2 = 0.4492 | 1008.25 ± 0.6 | 14.68 ± 0.34
x2 = 0.5037 | 1027.64 ± 0.63 | 19.56 ± 0.46
x2 = 0.5524 | 1043.6 ± 0.67 | 25.39 ± 0.6
x2 = 0.6009 | 1058.22 ± 0.7 | 32.05 ± 0.77
x2 = 0.7036 | 1085.8 ± 0.8 | 53.63 ± 1.3
x2 = 0.7873 | 1105.23 ± 0.89 | 76.62 ± 2
x2 = 0.8787 | 1124.35 ± 1 | 117.48 ± 3.6

CCCCCCn1cc[n+](C)c1.F[B-](F)(F)F [1-hexyl-3-methylimidazolium tetrafluoroborate]
[1]
Settings | mass density [kg/m3] | viscosity [mPa·s]
– | 1146.7 ± 1.2 | 195.37 ± 7.2

CCCCCCn1cc[n+](C)c1.F[B-](F)(F)F [1-hexyl-3-methylimidazolium tetrafluoroborate] + C1CCOC1
[2]
Settings | mass density [kg/m3] | viscosity [mPa·s]
x1 = 0.0498 | 922.89 ± 0.76 | 0.891 ± 0.022
x1 = 0.1008 | 956.61 ± 0.57 | 1.564 ± 0.038
x1 = 0.203 | 1007.44 ± 0.48 | 3.869 ± 0.088
x1 = 0.2976 | 1041.06 ± 0.43 | 7.658 ± 0.17
x1 = 0.3461 | 1054.83 ± 0.41 | 10.44 ± 0.23
x1 = 0.3965 | 1067.37 ± 0.42 | 13.93 ± 0.31
x1 = 0.4457 | 1078.09 ± 0.45 | 18.37 ± 0.42
x1 = 0.5003 | 1088.63 ± 0.49 | 24.9 ± 0.58
x1 = 0.5548 | 1097.81 ± 0.54 | 33.17 ± 0.78
x1 = 0.6083 | 1106.02 ± 0.59 | 42.68 ± 1
x1 = 0.7025 | 1118.37 ± 0.7 | 65.77 ± 1.7
x1 = 0.7992 | 1129 ± 0.84 | 97.79 ± 2.8
x1 = 0.8925 | 1137.77 ± 0.98 | 141.64 ± 4.6
x1 = 1 | 1146.7 ± 1.2 | 195.37 ± 7.2

CCCCCCn1cc[n+](C)c1.F[B-](F)(F)F [1-hexyl-3-methylimidazolium tetrafluoroborate] + CCC(C)=O
[2]
Settings | mass density [kg/m3] | viscosity [mPa·s]
x1 = 0.0492 | 845.71 ± 0.94 | 0.6 ± 0.014
x1 = 0.0988 | 889.12 ± 0.71 | 0.914 ± 0.022
x1 = 0.2011 | 946.15 ± 0.61 | 2.059 ± 0.047
x1 = 0.2989 | 991.57 ± 0.58 | 4.063 ± 0.092
x1 = 0.3482 | 1010.53 ± 0.56 | 5.578 ± 0.13
x1 = 0.3972 | 1027.28 ± 0.57 | 7.507 ± 0.17
x1 = 0.4605 | 1046.8 ± 0.61 | 11.08 ± 0.25
x1 = 0.4981 | 1057.05 ± 0.63 | 13.67 ± 0.32
x1 = 0.55 | 1070.3 ± 0.67 | 18.57 ± 0.43
x1 = 0.6057 | 1082.75 ± 0.71 | 24.46 ± 0.59
x1 = 0.7054 | 1102.84 ± 0.81 | 43.38 ± 1.1
x1 = 0.7955 | 1119.38 ± 0.91 | 69.4 ± 1.8
x1 = 0.8931 | 1132.37 ± 1 | 110.34 ± 3.3
x1 = 1 | 1146.7 ± 1.2 | 195.37 ± 7.2

CCCCCCn1cc[n+](C)c1.F[B-](F)(F)F [1-hexyl-3-methylimidazolium tetrafluoroborate] + CCCCN
[2], x1 = 1
Settings | mass density [kg/m3] | viscosity [mPa·s]
– | 1146.7 ± 1.2 | 195.37 ± 7.2

CCCCCCn1cc[n+](C)c1.F[B-](F)(F)F [1-hexyl-3-methylimidazolium tetrafluoroborate] + CCOC(C)=O
[2]
Settings | mass density [kg/m3] | viscosity [mPa·s]
x1 = 0.0498 | 925.56 ± 0.64 | 0.738 ± 0.018
x1 = 0.1 | 952.69 ± 0.55 | 1.188 ± 0.029
x1 = 0.2027 | 997.78 ± 0.52 | 2.674 ± 0.061
x1 = 0.302 | 1031.52 ± 0.53 | 5.221 ± 0.12
x1 = 0.3475 | 1044.35 ± 0.53 | 6.846 ± 0.16
x1 = 0.3983 | 1057.37 ± 0.56 | 9.328 ± 0.21
x1 = 0.4488 | 1068.89 ± 0.59 | 12.31 ± 0.28
x1 = 0.501 | 1079.8 ± 0.63 | 16.47 ± 0.38
x1 = 0.5487 | 1088.62 ± 0.67 | 21.49 ± 0.51
x1 = 0.6022 | 1097.8 ± 0.72 | 28.48 ± 0.68
x1 = 0.7075 | 1113.73 ± 0.82 | 48.11 ± 1.2
x1 = 0.8066 | 1126.46 ± 0.93 | 80.43 ± 2.2
x1 = 0.8908 | 1135.69 ± 1 | 119.88 ± 3.7
x1 = 1 | 1146.7 ± 1.2 | 195.37 ± 7.2

CCC(C)=O [butanone]
[1]
Settings | mass density [kg/m3] | viscosity [mPa·s]
– | 799.87 ± 0.25 | 0.388 ± 0.008

CCC(C)=O [butanone] + CCCCCCn1cc[n+](C)c1.F[B-](F)(F)F
[2], x2 = 0
Settings | mass density [kg/m3] | viscosity [mPa·s]
– | 799.87 ± 0.25 | 0.388 ± 0.008

CCOC(C)=O [ethyl acetate]
[1]
Settings | mass density [kg/m3] | viscosity [mPa·s]
– | 894.48 ± 0.25 | 0.437 ± 0.009

CCOC(C)=O [ethyl acetate] + CCCCCCn1cc[n+](C)c1.F[B-](F)(F)F
[2], x2 = 0
Settings | mass density [kg/m3] | viscosity [mPa·s]
– | 894.48 ± 0.25 | 0.437 ± 0.009

C1CCOC1 [tetrahydrofuran]
[1]
Settings | mass density [kg/m3] | viscosity [mPa·s]
– | 882.13 ± 0.16 | 0.475 ± 0.01

C1CCOC1 [tetrahydrofuran] + CCCCCCn1cc[n+](C)c1.F[B-](F)(F)F
[2], x2 = 0
Settings | mass density [kg/m3] | viscosity [mPa·s]
– | 882.13 ± 0.16 | 0.475 ± 0.01
